Source: ChEMBL document CHEMBL1147946, “3-{2-[Bis-(4-fluorophenyl)methoxy]ethyl}-6-substituted-3,6-diazabicyclo[3.1.1]heptanes as novel potent dopamine uptake inhibitors” (Bioorg Med Chem, 2007)

Biological target: Sodium-dependent dopamine transporter (Rattus norvegicus, UniProt P23977)
Assay: Inhibition of [3H]dopamine uptake at DAT in Sprague-Dawley rat striatum synaptosome
Type: tissue-based

Sodium-dependent dopamine transporter, sequence (P23977 whole entry): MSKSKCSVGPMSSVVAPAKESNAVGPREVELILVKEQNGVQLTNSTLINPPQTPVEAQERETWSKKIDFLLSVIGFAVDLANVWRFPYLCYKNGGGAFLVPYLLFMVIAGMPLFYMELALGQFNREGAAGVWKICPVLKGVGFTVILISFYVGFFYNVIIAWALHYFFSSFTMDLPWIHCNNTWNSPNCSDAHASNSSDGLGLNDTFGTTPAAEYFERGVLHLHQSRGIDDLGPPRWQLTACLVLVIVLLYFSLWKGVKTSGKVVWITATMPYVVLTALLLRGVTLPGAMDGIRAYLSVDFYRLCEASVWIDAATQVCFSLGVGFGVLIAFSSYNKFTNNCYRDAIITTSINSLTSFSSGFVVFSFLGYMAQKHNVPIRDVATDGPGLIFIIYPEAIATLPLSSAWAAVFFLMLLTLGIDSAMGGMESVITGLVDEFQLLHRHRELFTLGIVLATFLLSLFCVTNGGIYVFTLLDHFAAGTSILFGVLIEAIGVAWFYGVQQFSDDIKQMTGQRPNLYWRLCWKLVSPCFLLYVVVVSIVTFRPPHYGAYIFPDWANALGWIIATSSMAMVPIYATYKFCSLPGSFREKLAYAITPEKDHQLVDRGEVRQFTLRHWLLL

| SMILES | Ki |
| --- | --- |
| Fc1ccc(C(OCCN2CC3CC(C2)N3Cc2cc3ccccc3s2)c2ccc(F)cc2)cc1 | 35 nM |
| Fc1ccc(C(OCCN2CC3CC(C2)N3Cc2cc3ccccc3o2)c2ccc(F)cc2)cc1 | 37.5 nM |
| Fc1ccc(C(OCCN2CC3CC(C2)N3CC2=Cc3ccccc3C2)c2ccc(F)cc2)cc1 | 6.5 nM |
| Cc1ccccc1/C=C/CN1C2CC1CN(CCOC(c1ccc(F)cc1)c1ccc(F)cc1)C2 | 6.25 nM |
| Fc1ccc(C(OCCN2CC3CC(C2)N3C/C=C/c2ccccc2)c2ccc(F)cc2)cc1 | 9.1 nM |
| Fc1ccc(C(OCCN2CC3CC(C2)N3C/C=C/c2cccs2)c2ccc(F)cc2)cc1 | 12.6 nM |
| Fc1ccc(C(OCCN2CC3CC(C2)N3C/C=C/c2ccco2)c2ccc(F)cc2)cc1 | 8.8 nM |
| Fc1ccc(C(OCCN2CC3CC(C2)N3C/C=C/c2ccc3ccccc3c2)c2ccc(F)cc2)cc1 | 45.6 nM |
| Fc1ccc(C(OCCN2CC3CC(C2)N3Cc2cc3ccccc3[nH]2)c2ccc(F)cc2)cc1 | 5.5 nM |
